Values after ≈ are worked out from the molar mass of the structure shown.
Key:
[1] = Cytotoxicity against mouse EAC cells; type: functional; settings: Ehrlich, read-out: ED50 (the source's name)
[2] = Toxicity against mouse; type: organism-based; settings: in vivo

Oc1cc(Br)c(Br)c2c1Oc1cc(Br)cc(Br)c1O2 [SPONGIADIOXIN A]
EC50 [1]: 29 µg/mL (≈ 56.2 µM) | LD50 [2]: > 150 mg/kg

Oc1c(Br)c(Br)cc2c1Oc1cc(Br)cc(Br)c1O2 [SPONGIADIOXIN B]
EC50 [1]: 15.5 µg/mL (≈ 30.1 µM) | LD50 [2]: > 150 mg/kg
